From patent US20240197716A1, “TREATMENTS FOR CUSHING'S SYNDROME THAT DO NOT SIGNIFICANTLY AFFECT CARDIAC RHYTHMS” (Corcept Therapeutics Incorporated, priority 2022, published 2024)

What was measured:
[1] = Effect of food on relacorilant Cmax; format: in vivo
healthy volunteers = assay: First-in-Human SAD/MAD study (NCT03508635), ECG / QTcF; format: in vivo; details: for placebo-corrected predicted change in QTc at Cmax: doses of 50, 150, 250 and 500 mg
Description: A phase 1, 3-part, single-center, First-in-Human study (NCT03508635) included 103 healthy volunteers who received single or multiple ascending doses (SAD/MAD) of relacorilant (up to 500 mg QD) for up to 14 days; 24 received placebo.
(§1) In all studies, ECG data were collected and the heart rate-corrected QT interval using Fridericia's formula (QTcF) was calculated. Participants with a family history of or risk factors for torsades de pointes or with a prolonged QT interval at screening were not eligible to participate. Exposure-response analysis of the effect of relacorilant on the heart-rate corrected QT interval (QTc) was conducted using a linear model with an intercept.
(§2) In a 3-part, single-center, First-in-Human study (NCT03508635, “phase 1 study”), 103 healthy volunteers received single or multiple ascending doses of relacorilant (up to 500 mg QD) for up to 14 days; 24 received placebo. In a randomized, partial double-blind, crossover Thorough QT study (NCT04795479, “TQT study”), the effect of multiple therapeutic (400 mg QD, n=25) and supra-therapeutic (800 mg QD, n=28) doses of relacorilant on cardiac repolarization was studied in healthy volunteers. A single dose of moxifloxacin (400 mg, n=28) was used as a positive control; 29 participants received placebo. In a single-arm, open-label phase 2 study (NCT02804750, “CS study”), 17 patients with CS received low-dose relacorilant (100-200 mg QD) for 12 weeks and 18 patients received high-dose relacorilant (250-400 mg QD) for 16 weeks. In all studies, ECG data were collected, and the heart rate-corrected QT interval using Fridericia's formula (QTcF) was assessed.
ECG data were available from 42 and 12 participants randomized to relacorilant or placebo, respectively, during the single ascending dose (SAD) phase, and from 34 and 12 participants randomized to relacorilant or placebo, respectively, during the multiple ascending dose (MAD) phase. Baseline mean (SD) QTcF values were within expectations for a healthy population (range […] (11.7) msec to 403.5 (9.4) msec) and were similar in the respective relacorilant and placebo cohorts during the SAD and MAD study phases (see Table 1) (where the value in parentheses indicates standard deviation).

[2] = system: Cushing's syndrome patients; assay: Separate study: relacorilant with another drug known to cause QT prolongation; format: in vivo, human; details: at least 12 patients also receiving fluoroquinoline, imidazole derivative, macrolide or protease inhibitor drug
patients with CS = assay: Phase 2 CS study (NCT02804750), ECG / QTcF; format: in vivo, human
Description: A single-arm, open-label phase 2 study (NCT02804750) in patients with CS. 17 patients received low-dose relacorilant (100-200 mg QD) for 12 weeks; 18 patients received high-dose relacorilant (250-400 mg QD) for 16 weeks.
as §1, §2

[3] = MAD, concentration-QTc linear model, FIG. 2B
[4] = SAD, concentration-QTc linear model, FIG. 2A

increase of Cmax relative to fasting conditions ([1]; high-fat breakfast): approximately 34%
increase of Cmax relative to fasting conditions ([1]; moderate-fat breakfast): ~41%
Structure (SMILES): Cn1cc(S(=O)(=O)N2CCC3=Cc4c(cnn4-c4ccc(F)cc4)C[C@]3(C(=O)c3cc(C(F)(F)F)ccn3)C2)cn1 [relacorilant, ((R)-(1-(4-fluorophenyl)-6-((1-methyl-1H-pyrazol-4-yl)sulfonyl)-4,4a,5,6,7,8-hexahydro-1H-pyrazolo[3,4-g]isoquinolin-4a-yl)(4-(trifluoromethyl)pyridine-2-yl)methanone)]
MAD equation ΔΔQTcF intercept (healthy volunteers; [3]): -1.804 ms
MAD equation ΔΔQTcF slope versus relacorilant concentration (healthy volunteers; [3]): -0.00234 ms/ng/mL
placebo-corrected predicted change in QTc at Cmax (healthy volunteers; MAD, FIG. 2B): less than 10 ms
mean ΔΔQTcF at any time point (healthy volunteers; SAD and MAD study phases, all doses): ≤ 5 ms
SAD equation ΔΔQTcF intercept (healthy volunteers; [4]): -0.005 ms
SAD equation ΔΔQTcF slope versus relacorilant concentration (healthy volunteers; [4]): -0.000588 ms/ng/mL
placebo-corrected predicted change in QTc at Cmax (healthy volunteers; SAD, FIG. 2A): less than 5 ms
Mean placebo-corrected ΔQTcF (ΔΔQTcF) at any time point (healthy volunteers; any of the dosing groups): ≤ 3 ms
prolonging effect on ΔΔQTcF exceeding the 10-msec threshold (healthy volunteers; modeled SAD and MAD results, plasma concentrations up to approximately 4000 ng/ml): excluded
instances of post-dose QTcF interval>450 ms or QTcF interval increase of >30 ms (healthy volunteers; up to 500 mg QD): No instances
effect on ECG parameters (healthy volunteers; up to 500 mg daily): did not have a clinically relevant adverse effect on ECG parameters
QT prolongation [2]: no clinically significant QT prolongation
hypokalemia (patients with CS; CS study): no instances
abnormal sinus tachycardia, post-baseline ECG finding (patients with CS; high-dose group): 11.1%
abnormal sinus tachycardia, post-baseline ECG finding (patients with CS; high-dose group (18 patients)): 2 patients
change in median QTcF (patients with CS; high-dose group, 250 to 400 mg/day, FIG. 6B): No significant changes
abnormal sinus tachycardia, post-baseline ECG finding (patients with CS; low-dose group): 17.6%
abnormal sinus tachycardia, post-baseline ECG finding (patients with CS; low-dose group (17 patients)): 3 patients
change in median QTcF (patients with CS; low-dose group, 100 to 200 mg/day, FIG. 6A): No significant changes
